Measured values published in patent US20110020326A1, “METHOD OF TREATING POLYCYSTIC KIDNEY DISEASE” (CHILDREN'S MEDICAL CENTER CORPORATION, priority 2008, published 2011).
“Also recorded” adds a separate entry of the source.

Assays:
[1] = test system: Pkd1^null/null embryonic kidneys; experiment: Embryonic kidney organ culture model of PKD (8-Br-cAMP-induced cyst formation, H&E sections); type: cell-based, mouse; settings: 96 hours of culture
Procedure: Embryonic mice kidneys of E13.5 were dissected out and cultured in media^29 (1% FBS, 5 mg/ml Transferin, 0.05 mM Sodium Selenite, 100 nM hydrocortisone, 2 nM T3, 25 ng/ml PGE1, 100 U/ml Penicillin/streptomycin, 100 mM 8-Br-cAMP) in Center-Well Organ Culture Dish (BD Labware, Franklin Lakes, N.J.). The following day, the kidneys from the same embryo were treated with either […] Met Kinase Inhibitor (Calbiochem, La Jolla, CA) or DMSO (the same volume with Met Kinase Inhibitor). The media were changed everyday with the same additives as above. After […], kidneys were fixed by 4% PFA, and embedded in paraffin. Paraffin sections were stained with hematoxylin and eosin.
Embryonic mice kidneys of E13.5 were dissected out and cultured in media (1% FBS, 5 mg/ml Transferin, 0.05 mM Sodium Seelenite, 100 nM hydrocortisone, 2 nM T3, 25ng/ml PGE1, 100 U/ml Penicillin/streptomycin, 100 mM 8-Br-cAMP) in Center-Well Organ Culture Dish (BD Labware, Franklin Lakes, N.J.). The following day, the kidneys from the same embryo were treated with either 2 microgram/ml c-MET blocking antibody (R&D Systems, Minneapolis, Minn.) or PBS (the same volume with c-Met blocking antibody). The media were changed everyday with the same additives as above. After 4 days, kidneys were fixed by 4% PFA, and embedded in paraffin. Paraffin sections were stained with hematoxylin and eosin.
E13.5 embryonic kidneys were put in organ culture along with 100 μM 8-Br-cAMP, with or without 5 μM c-MET inhibitor (SU11274, from Calbiochem). (B) E13.5 embryonic kidneys were put in organ culture along with 100 mM 8-Br-cAMP, with or without 5 μg/ml c-MET neutralizing antibody (R&D Systems). (C) E13.5 embryonic kidneys were put in organ culture along with 100 mM 8-Br-cAMP, with or without 0.5 μM c-MET inhibitor (PHA665752, from Tocris, UK). Hematoxylin & Eosin stained sections of kidneys are shown after 96 hours of culture.

[2] = test system: mTOR phosphorylation in Pkd1^null/null cells; experiment: mTOR phosphorylation (Western blot phospho-mTOR / total mTOR) in Pkd1 null/null cells; type: cell-based, mouse; settings: c-Met inhibitor 5 mM for 40 min (FIG. 1 legend) / 5 μM, 4 hours (Example 5), FIG. 1a, b
Procedure: Pkd1 wild type (WT) and Pkd1^null/null cell line were isolated from embryonic day 15.5 kidneys from a cross of Pkd1^null/+ mice that also carry a temperature-sensitive simian virus 40 (SV40) large T-antigen transgene, similar with the protocol described in reference 23. Wt and Pkd1^null/null cells were cultured in Dulbecco's modified Eagle medium containing 2% fetal bovine serum, 0.75 μg/L γ-interferon, 1.0 g/L insulin, 0.67 mg/L sodium selenite, 0.55 g/L transferrin, 36 ng/ml hydrocortisone, 100 U/ml Penicillin/streptomycin under 33° C. and 5% CO2^23.
Immunoprecipitation and western-blot were performed using whole cell lysates unless otherwise specified. Confluent cells were collected, washed with PBS, lysed with lysis buffer (20 mM Tris/HCl, 1 mM EDTA, 150 mM NaCl, 1% Triton X-100) containing proteinase inhibitor cocktail tablet (Roche #1697498, Mannheim, Germany) at 4° C. for 30 minutes. After centrifugation at 13,000 rpm for 15 minutes, supernatants were incubated with specific antibody at 4° C. for 1 hour, followed by incubation with Protein G conjugated beads (Pierce Biotechnology, IL) at 4° C. for 2 hours, washed in lysis buffer. Samples were running on 7.5% acrylamide gel, transferred to PVDF membranes and visualized by immunoblotting with respective antibodies. […]

[3] = FIG. 6, Pkd1^null/null kidneys at E15.5, 10 mM 8-Br-cAMP, 5 μM c-MET inhibitor

SMILES	cyst formation ([1]; FIG. 7C, E13.5 Pkd1 null/null kidneys, 100 mM 8-Br-cAMP, 0.5 μM)	effect on nephrogenesis ([1]; FIG. 7C, E13.5 kidneys, 100 mM 8-Br-cAMP, 0.5 μM)	mTOR phosphorylation [2]	mTOR phosphorylation ([2]; listed as Met Kinase Inhibitor)	cyst formation [1, 3]	size and number of cysts [1, 3]	effect on nephrogenesis ([1]; FIG. 6, wild type and Pkd1^null/null kidneys, 5 μM c-MET inhibitor, listed as c-MET inhibitor)	effect on nephrogenesis ([1]; FIG. 6, wild type and Pkd1^null/null kidneys, 5 μM c-MET inhibitor, listed as c-Met inhibitor)	cyst formation ([1]; FIG. 7A, E13.5 Pkd1 null/null kidneys, 100 μM 8-Br-cAMP, 5 μM)	effect on nephrogenesis ([1]; FIG. 7A, E13.5 kidneys, 100 μM 8-Br-cAMP, 5 μM)
Cc1[nH]c(/C=C2\C(=O)Nc3ccc(S(=O)(=O)Cc4c(Cl)cccc4Cl)cc32)c(C)c1C(=O)N1CCC[C@@H]1CN1CCCC1 [PHA665752, (2R)-1-[[5-[(Z)45-[[(2,6-Dichlorophenyl)methyl]sulfony 1]-1,2-dihydro-2-oxo-3H-indo1-3-ylidenelmethyl]-2,4-dimethyl-1H-pyrrol-3-yl]carbonyl]-2-(1-pyrrolidinylmethyl) pyrrolidone]	decreased	no apparent effect	–	–	–	–	–	–	–	–
Cc1[nH]c(/C=C2\C(=O)Nc3ccc(S(=O)(=O)N(C)c4cccc(Cl)c4)cc32)c(C)c1C(=O)N1CCN(C)CC1 [SU11274, (3Z)-N-(3-chlorophenyl)-3-({3,5-dimethyl-4-[(4-methylpiperazin-1-yl)carbonyl]-1H-pyrrol-2-yl}methylene)-N-methyl-2-oxoindoline-5-sulfonamide]	–	–	inhibited	reduced mTOR phosphorylation in Pkd1^null/null cells, to a baseline level observed in WT cells	reduced cyst formation in organ culture by Pkd1^null/null mutant kidneys to the basal level observed in WT kidneys; also recorded: decreased	decreased	no apparent effect	did not have a marked effect	decreased	no apparent effect
